From article PMC5974779, “Prediction of Drug-Induced Hepatotoxicity Using Long-Term Stable Primary Hepatic 3D Spheroid Cultures in Chemically Defined Conditions” (Toxicological Sciences, 2018)
Read-outs that look alike come from different tables or passages of the source.

Assays:
[1] = system: clinical DILI in man; conditions: cited from earlier work
[2] = ref DrugBank and Prescribers' Digital Reference database; cited from earlier work
[3] = cited from earlier work
[4] = system: primary human hepatocytes (PHH) 3D spheroids
[5] = system: PHH 2D sandwich cultures; conditions: cited from earlier work; for hepatotoxicity detection in 2D sandwich cultures of PHH: 100× cmax, 24 h, high content imaging
[6] = in vitro; conditions: human
[7] = system: PHH spheroids (hanging-drop); conditions: cited from earlier work
[8] = system: primary human hepatocytes (PHH) 3D spheroids; assay: CD-spheroid hepatotoxicity: ATP viability (CellTiter-Glo) of PHH 3D spheroids after 14 days repeated exposure at 1×, 5×, 20× cmax
[9] = system: PHH micropatterned cocultures with murine embryonic fibroblasts; conditions: cited from earlier work
[10] = therapeutic total cmax, ref PMID
[11] = PHH 2D sandwich cultures, 100x Cmax, ref Xu 2008
[12] = PHH hanging-drop spheroids, 100x Cmax, ref Proctor 2017
[13] = FDA drug labeling DILI score, ref Chen et al., 2011
[14] = clinical DILI classification in man (POS/NEG)
[15] = clinical DILI classification used in this study, Supplementary Table 2, ref Chen et al., 2011, Guo et al., 2005, O'Brien et al., 2006, Sakatis et al., 2012, Suzuki et al., 2010, Xu et al., 2008
[16] = clinical DILI classification, Supplementary Table 1, ref Chen et al., 2011, Guo et al., 2005, O'Brien et al., 2006, Sakatis et al., 2012, Suzuki et al., 2010, Xu et al., 2008
[17] = clinical DILI classification, ref Xu et al. (2008)
[18] = reported pattern of liver damage, Supplementary Table 2, ref literature
[19] = PHH spheroids in chemically defined conditions, 20x Cmax

Compound	Classified as ([1]; in vivo)	Clinical DILI class (panel heading of Figure 4) ([1]; in vivo)	DILI in vivo ([1]; in vivo)	FDA (0-8) ([1]; in vivo)	FDA (Severity) ([1]; in vivo)	Sakatis et al. (2012) ([1]; in vivo)	Suzuki et al. (2010) ([1]; in vivo)	Type of DILI ([1]; in vivo)	Xu et al. (2008) ([1]; in vivo)	Extent of hepatic metabolism [2]	Cmax [3, 10] [nM]	Chemically defined spheroids (this study) 20x [4]	2Dsw (Xu 2008) 100x [5, 11]	Hanging-drop spheroids (Proctor 2017) 100x [7, 12]	other results
Cn1cnc([N+](=O)[O-])c1Sc1ncnc2nc[nH]c12 [Azathioprine]	POS	High DILI concern	POS	5	less DILI concern	Hepatotoxic	1	Cholestatic injury or Mixed hepatitis	Positive	Extensive	7210	Positive	Positive	Positive	Guo et al. (2005) ([1]; in vivo): 3; O'Brien et al. (2003) ([1]; in vivo): Moderately; viability at 14 days, 1 × cmax [6]: < 10%
CC(CCc1ccc(O)cc1)NCCc1ccc(O)c(O)c1 (stereo not drawn) [Dobutamine]										Extensive	1340		Negative		FDA (Severity) ([1]; FDA drug labeling DILI concern, ref Chen et al., 2011): no DILI concern; FDA (0-8) [1, 13]: 0; DILI in vivo [1, 14]: NEG; Classified as [1, 15]: NEG; DILI in vivo [1, 16]: NEG; Xu et al. (2008) [1, 17]: Negative; Type of DILI [1, 18]: Non-hepatotoxic; Chemically defined spheroids (this study) 20x [8, 19]: Negative
CNCCC(Oc1ccc(C(F)(F)F)cc1)c1ccccc1 (stereo not drawn) [Fluoxetine]	NEG	DILI negative	NEG	3		non-hepatotixic	2	Non-hepatotoxic	Negative			Negative			2Dsw (Xu 2008) 100x [5]: Negative; MPCC (Khetani 2013) 100x [9]: Negative; hepatotoxicity classification in hanging-drop PHH spheroids ([7]; 100× cmax, 2 weeks, ref Proctor et al., 2017): flagged as hepatotoxic; Hanging-drop spheroids (Proctor 2017) 100x [7]: Positive
COC1=CC(=O)C[C@@H](C)[C@]12Oc1c(Cl)c(OC)cc(OC)c1C2=O [Griseofulvin]										Extensive	4540	Negative			viability at 14 days, 20 × cmax [6]: > 100%
CN(C)CCCN1c2ccccc2CCc2ccccc21 [Imipramine]										Extensive			Negative	Positive	hepatotoxicity detection in 2D sandwich cultures of PHH ([5]; ref Xu et al., 2008): liver toxicity was not recognized; MPCC (Khetani 2013) 100x ([9]; micropatterned cocultures, 100x Cmax, ref Khetani 2013): Positive
CC(=O)N1CCN(c2ccc(OCC3COC(Cn4ccnc4)(c4ccc(Cl)cc4Cl)O3)cc2)CC1 (stereo not drawn) [Ketoconazole]	POS	Severe DILI	POS	8	most DILI concern	Hepatotoxic	2	Hepatocellular injury or Cholestatic injury		Extensive		Positive		Positive	Guo et al. (2005) ([1]; in vivo): 3; O'Brien et al. (2003) ([1]; in vivo): Severely; viability at 14 days, 1 × cmax [6]: < 10%
CC(CCc1ccccc1)NCC(O)c1ccc(O)c(C(N)=O)c1 (stereo not drawn) [Labetalol]	POS	Severe DILI	POS	8	most DILI concern	Hepatotoxic	3	Hepatocellular injury	Positive	Extensive	2680	Negative	Positive		O'Brien et al. (2003) ([1]; in vivo): Severely; hepatotoxicity evaluation in CD-spheroids [4]: predicted to be DILI negative; hepatotoxicity detection in 2D sandwich cultures of PHH ([5]; ref Xu et al., 2008): flagged as hepatotoxic; reactive oxygen species levels in 2D sandwich cultures of PHH ([5]; ref Xu et al., 2008): only slight increases in reactive oxygen species levels; viability at 14 days, 20 × cmax [6]: > 100%
CC(COc1ccccc1)N(CCCl)Cc1ccccc1 (stereo not drawn) [Phenoxybenzamine]	NEG	DILI negative	NEG	0	no DILI concern	non-hepatotixic		Non-hepatotoxic	Negative						Cmax ([3]; human, in vivo): 180 nM; 2Dsw (Xu 2008) 100x [5]: Negative; Chemically defined spheroids (this study) 20x [8, 19]: Negative; Hanging-drop spheroids (Proctor 2017) 100x [7]: Negative
Nc1c2c(nc3ccccc13)CCCC2 [Tacrine]	POS	High DILI concern	POS					Hepatocellular injury				Negative			Cmax ([3]; human, in vivo): 70 nM; 2Dsw (Xu 2008) 100x [5]: Negative; viability at 14 days, 20 × cmax [6]: > 100%; Hanging-drop spheroids (Proctor 2017) 100x [7]: Negative
Cn1nnc2c(C(N)=O)ncn2c1=O [Temozolomide]										Minimal	26800		Negative		Guo et al. (2005) ([1]; DILI classification score, ref Guo et al. (2005)): 1; FDA (0-8) [1, 13]: 4; DILI in vivo [1, 14]: NEG; Classified as [1, 15]: NEG; DILI in vivo [1, 16]: NEG; Xu et al. (2008) [1, 17]: Negative; Type of DILI [1, 18]: Non-hepatotoxic; Chemically defined spheroids (this study) 20x [8, 19]: Negative
Cc1ccc(C(=O)c2cc(O)c(O)c([N+](=O)[O-])c2)cc1 [Tolcapone]	POS	Severe DILI	POS	8	most DILI concern		3	Hepatocellular injury or Mixed hepatitis		Extensive	47600	Positive		Positive	Guo et al. (2005) ([1]; in vivo): 3; viability at 14 days, 1 × cmax [6]: < 10%
Aflatoxin B1	POS		POS					Hepatocellular injury							Cmax ([3]; human, in vivo): 30 nM; Chemically defined spheroids (this study) 20x [8]: Positive
